Measured values published in patent publication US20120282359A1, “Compositions, Kits, and Methods for the Treatment of Conditions Associated with Elevated Cholesterol Levels” (priority 2003, published 2012).

Tested on: humans having risk factors for atherosclerosis
Assay: Example 4: double-blinded, randomized comparative study of treating elevated cholesterol levels
Assay type: in vivo, human
Details: at eight weeks, versus baseline
Procedure: A comparative study is executed to determine the effects of methods of treating elevated cholesterol levels comprising administration of each of: Test Sample 1, simvastatin (20 mg) in conjunction with fruit juice; Test Sample 2, simvastatin (10 mg) in conjunction with fruit juice; and Test Sample 3, simvastatin (10 mg) in conjunction with psyllium (15 grams) and fruit juice.
The study is a double-blinded, randomized comparison. Sixty humans, aging from about 30 to about 80 years, are utilized for the study, all of which are determined as having risk factors for atherosclerosis. The humans are randomized to three treatment groups (Treatment Group 1, Treatment Group 2, and Treatment Group 3). Each human stops any lipid-lowering treatment, and baseline lipid levels are obtained.
Treatment Group 1 receives Test Sample 1; Treatment Group 2 receives Test Sample 2; and Treatment Group 3 receives Test Sample 3; all over an eight week period. Test Sample 1 is administered as a concurrent administration once daily. Test Sample 2 is administered as a concurrent administration once daily. For Test Sample 3, 15 grams of psyllium is divided over three daily doses, each with fruit juice, wherein the last administered dose per day is concurrently administered with the simvastatin.
At eight weeks, levels of LDL-cholesterol, total cholesterol, and triglycerides are measured. Triglycerides are found not to be influenced based upon treatment group. However, on average, LDL-cholesterol and total cholesterol is decreased by approximately 29% in Treatment Group 1, LDL-cholesterol and total cholesterol is decreased by approximately 33% in Treatment Group 2, and LDL-cholesterol and total cholesterol is decreased by approximately 38% in Treatment Group 3.

Row | SMILES | LDL-cholesterol decreased, on average | total cholesterol decreased, on average
1 | CCC(C)(C)C(=O)O[C@H]1C[C@@H](C)C=C2C=C[C@H](C)[C@H](CC[C@@H]3C[C@@H](O)CC(=O)O3)[C@H]21 [Test Sample 1, simvastatin] | approximately 29% | approximately 29%
2 | CCC(C)(C)C(=O)O[C@H]1C[C@@H](C)C=C2C=C[C@H](C)[C@H](CC[C@@H]3C[C@@H](O)CC(=O)O3)[C@H]21 [Test Sample 2, simvastatin] | approximately 33% | approximately 33%
